From patent publication EP0327492A1, “Herbicidally and plantgrowth regulatory active quinoline and pyrindine compounds” (CIBA-GEIGY AG, priority 1988, dated 1989)

Experiments:
Type in all cases: in vivo
Untersaaten in Mais = assay: Pre-post selectivity: growth inhibition of undersown grasses (post-emergent) versus maize (pre-emergent)
Text: Verbindungen der Formel I zeigen in vorteilhafter Weise eine "pre-post-Selektivität" bei verscheidenen Gräsern in Maiskulturen.
Die wuchshemmende Wirkung in Gräsern ist in postemergenter Applikation stark ausgeprägt, während bei gleichzeitiger Preemergenter Applikation Maispflanzen in ihrem Wuchs nur geringfügig gehemmt werden. Derartige "pre-post-Selektivitäten" erlauben somit die Aussaat von Mais in Gräsern. Dabei soll der Zeitpunkt für die Applikation der Aktivsubstanz der Formel so gewählt werden, dass die Aktivsubstanz postemergent für die Gräser ober preemergent für den Mais angewendet wird. In den ersten Wochen ist der Zuwachs der Gräser so stark gehemmt, dass die Maispflanze sich ungehindert entfalten kann.
Eine Mischung von Gräsern (z.B. Poa, Festuca, Lolium, Bromus, Cynosurus) werden in 15 cm - Kunststofftöpfen mit steriler Landerde angesät und im Gewächshaus bei einer Tagestemperatur von 21°C und einer Nachttemperatur von 17°C angezogen. Die Beleuchtungsdauer beträgt 13,5 Stunden/Tag bei einer Lichtintensität von mind. 7000 Lux. Nach dem Ablauf werden die Pflanzen wöchentlich auf ca. 6 cm Höhe zurückgeschnitten. Ca. 42 Tage nach der Saat und 1 Tag nach dem letzten Schnitt erfolgt die Applikation mit 60-500 g Wirkstoff/ha als wässrige Spritzbrühe. Die Wasseraufwandmenge ist ca. 500 I/ha.
20 Tage nach der Behandlung wird der Versuch ausgewertet. Hierbei wird die Höhe des Neuzuwachses gemessen und in % Hemmung zum Durchschnitt der unbehandelten Kontrollen dargestellt. Die nekrotischen Schäden sind in % zur gesamten Blattfläche aufgeführt.
Mais der Sorte Blizzard G188 werden in 15 cm - Kunststofftöpfen mit steriler gesiebter Landerde angesät und im Gewächshaus bei einer Tagestemperatur von 22°C und einer Nachttemperatur von 19°C aufgestellt. Die Beleuchtungsdauer beträgt mindestens 13,5 Stunden/Tag bei einer Lichtintensität von mindestens 7000 Lux. 1 Tag nach der Saat erfolgt die Applikation mit 60-500 g Wirkstoff/ha, in der Regel 25 %ig formuliert und in wässriger Spritzbrühe. Die Wasseraufwandmenge ist ca. 200 I/ha.
16 Tage nach der Behandlung wird der Versuch ausgewertet. […]

Abutilon [1] = assay: Post-emergent herbicidal action, contact herbicide (B.3); conditions: 500 bis 2000 [g/ha], 15 days after treatment
Experimental: (§1) Im Gewächshaus wird unmittelbar nach der Einsaat der Versuchspflanzen in Saatschalen die Erdoberfläche mit einer wässrigen Dispersion der Wirkstoffe, erhalten aus einem 25 %igen Emulsionskonzentrat behandelt. Es werden Konzentrationen von 2000-500 g Wirksubstanz/Hektar angewendet. Die Saatschalen werden im Gewächshaus bei 22-25° C und 50-70 % relativer Luftfeuchtigkeit gehalten und der Versuch nach 3 Wochen ausgewertet und die Resultate nach folgender Notenskala ausgewertet. • 1 Pflanze hat nicht gekeimt oder ist eingegangen • 2-3 sehr starke Schäden • 4 starke Schäden • 5 mittlere Schäden, die Pflanzen sind verkümmert • 6 Schäden, die Pflanze kann regenerieren • 7-8 leichte Schäden • 9 normales Wachstum, wie das unbehandelter Pflanzen
(§2) Boniturnoten von 1 bis 4 (insbesondere von 1 bis 3) weisen auf eine gute bis sehr gute Herbizidwirkung hin. Boniturnoten von 6 bis 9 (insbesondere 7 bis 9) weisen auf eine gute Toleranz (insbesondere bei Kulturpflanzen) hin.
(§3) Eine Anzahl Unkräuter, sowohl monokotyle wie dikotyle, werden nach dem Auflaufen (im 4- bis 6-Blattstadium) mit einer wässrigen Wirkstoffdispersion in einer Dosierung von 2000-500 g Wirksubstanz pro Hektar auf die Pflanzen gespritzt und diese bei 24°-26°C und 45-60 % relativer Luftfeuchtigkeit gehalten. 15 Tage nach der Behandlung wird der Versuch nach dem in Beispiel B.2. gegebenen Massstab bewertet.

Digitaria sang. [2] = assay: as above; conditions: 500 bis 2000 [g/ha], 15 days after treatment
Experimental: as §1, §2, §3

Avena fatua [3] = assay: as above; conditions: 500 bis 2000 [g/ha], 15 days after treatment
Experimental: as §1, §2, §3

Echinochloa crus galli [4] = assay: as above; conditions: 500 bis 2000 [g/ha], 15 days after treatment
Experimental: as §1, §2, §3

Chenopodium Sp. [5] = assay: as above; conditions: 500 bis 2000 [g/ha], 15 days after treatment
Experimental: as §1, §2, §3

Galium aparine [6] = assay: as above; conditions: 500 bis 2000 [g/ha], 15 days after treatment
Experimental: as §1, §2, §3

Amaranthus ret. [7] = assay: as above; conditions: 500 bis 2000 [g/ha], 15 days after treatment
Experimental: as §1, §2, §3

Stellaria [8] = assay: as above; conditions: 500 bis 2000 [g/ha], 15 days after treatment
Experimental: as §1, §2, §3

Sorghum halep. [9] = assay: as above; conditions: 500 bis 2000 [g/ha], 15 days after treatment
Experimental: as §1, §2, §3

Bromus tectorum [10] = assay: as above; conditions: 500 bis 2000 [g/ha], 15 days after treatment
Experimental: as §1, §2, §3

Alopecurus myos. [11] = assay: as above; conditions: 500 bis 2000 [g/ha], 15 days after treatment
Experimental: as §1, §2, §3

Solanum nigrum [12] = assay: as above; conditions: 500 bis 2000 [g/ha], 15 days after treatment
Experimental: as §1, §2, §3

Lolium perenne [13] = assay: as above; conditions: 500 bis 2000 [g/ha], 15 days after treatment
Experimental: as §1, §2, §3

Sinapis [14] = assay: as above; conditions: 500 bis 2000 [g/ha], 15 days after treatment
Experimental: as §1, §2, §3

Veronica Sp. [15] = assay: as above; conditions: 500 bis 2000 [g/ha], 15 days after treatment
Experimental: as §1, §2, §3

Chrysanthe. leuc. [16] = assay: as above; conditions: 500 bis 2000 [g/ha], 15 days after treatment
Experimental: as §1, §2, §3

Xanthium Sp. = assay: as above; conditions: 500 bis 2000 [g/ha], 15 days after treatment
Experimental: as §1, §2, §3

Abutilon [17] = assay: Pre-emergent herbicidal action (B.2); conditions: 500 bis 2000 [g/ha], evaluated after 3 weeks
Experimental: as §1, §2

Ipomoea = assay: Pre-emergent herbicidal action (B.2); conditions: 500 bis 2000 [g/ha], evaluated after 3 weeks
Experimental: as §1, §2

Digitaria sang. [18] = assay: Pre-emergent herbicidal action (B.2); conditions: 500 bis 2000 [g/ha], evaluated after 3 weeks
Experimental: as §1, §2

Avena fatua [19] = assay: Pre-emergent herbicidal action (B.2); conditions: 500 bis 2000 [g/ha], evaluated after 3 weeks
Experimental: as §1, §2

Echinochloa crus galli [20] = assay: Pre-emergent herbicidal action (B.2); conditions: 500 bis 2000 [g/ha], evaluated after 3 weeks
Experimental: as §1, §2

Chenopodium Sp. [21] = assay: Pre-emergent herbicidal action (B.2); conditions: 500 bis 2000 [g/ha], evaluated after 3 weeks
Experimental: as §1, §2

Galium aparine [22] = assay: Pre-emergent herbicidal action (B.2); conditions: 500 bis 2000 [g/ha], evaluated after 3 weeks
Experimental: as §1, §2

Amaranthus ret. [23] = assay: Pre-emergent herbicidal action (B.2); conditions: 500 bis 2000 [g/ha], evaluated after 3 weeks
Experimental: as §1, §2

Stellaria [24] = assay: Pre-emergent herbicidal action (B.2); conditions: 500 bis 2000 [g/ha], evaluated after 3 weeks
Experimental: as §1, §2

Sorghum halep. [25] = assay: Pre-emergent herbicidal action (B.2); conditions: 500 bis 2000 [g/ha], evaluated after 3 weeks
Experimental: as §1, §2

Bromus tectorum [26] = assay: Pre-emergent herbicidal action (B.2); conditions: 500 bis 2000 [g/ha], evaluated after 3 weeks
Experimental: as §1, §2

Alopecurus myos. [27] = assay: Pre-emergent herbicidal action (B.2); conditions: 500 bis 2000 [g/ha], evaluated after 3 weeks
Experimental: as §1, §2

Solanum nigrum [28] = assay: Pre-emergent herbicidal action (B.2); conditions: 500 bis 2000 [g/ha], evaluated after 3 weeks
Experimental: as §1, §2

Lolium perenne [29] = assay: Pre-emergent herbicidal action (B.2); conditions: 500 bis 2000 [g/ha], evaluated after 3 weeks
Experimental: as §1, §2

Sinapis [30] = assay: Pre-emergent herbicidal action (B.2); conditions: 500 bis 2000 [g/ha], evaluated after 3 weeks
Experimental: as §1, §2

Veronica Sp. [31] = assay: Pre-emergent herbicidal action (B.2); conditions: 500 bis 2000 [g/ha], evaluated after 3 weeks
Experimental: as §1, §2

Chrysanthe. leuc. [32] = assay: Pre-emergent herbicidal action (B.2); conditions: 500 bis 2000 [g/ha], evaluated after 3 weeks
Experimental: as §1, §2

CC1CCCc2nc3c(cc21)C(=O)N1C(=O)C(C)(C(C)C)N=C31 (centres unmarked) [Verbindung 3.02, 2,7-Dimethyl-2-isopropyl-7,8,9,10-tetrahydro-3H,5H-imidazo[1',2':1,2]pyrrolo[3,4-b]chinolin-3,5-dion]
"pre-post-Selektivität" bei Untersaaten in Mais (Untersaaten in Mais): ausgeprägter "pre-post-Selektivität"
Herbizidwirkung (Abutilon [1]): gute bis sehr gute Herbizidwirkung (Boniturnoten von 1 bis 4 (insbesondere von 1 bis 3) weisen auf eine gute bis sehr gute Herbizidwirkung hin)
Herbizidwirkung (Digitaria sang. [2]): gute bis sehr gute Herbizidwirkung (Boniturnoten von 1 bis 4 (insbesondere von 1 bis 3) weisen auf eine gute bis sehr gute Herbizidwirkung hin)
Herbizidwirkung (Avena fatua [3]): gute bis sehr gute Herbizidwirkung (Boniturnoten von 1 bis 4 (insbesondere von 1 bis 3) weisen auf eine gute bis sehr gute Herbizidwirkung hin)
Herbizidwirkung (Echinochloa crus galli [4]): gute bis sehr gute Herbizidwirkung (Boniturnoten von 1 bis 4 (insbesondere von 1 bis 3) weisen auf eine gute bis sehr gute Herbizidwirkung hin)
Herbizidwirkung (Chenopodium Sp. [5]): gute bis sehr gute Herbizidwirkung (Boniturnoten von 1 bis 4 (insbesondere von 1 bis 3) weisen auf eine gute bis sehr gute Herbizidwirkung hin)
Herbizidwirkung (Galium aparine [6]): gute bis sehr gute Herbizidwirkung (Boniturnoten von 1 bis 4 (insbesondere von 1 bis 3) weisen auf eine gute bis sehr gute Herbizidwirkung hin)
Herbizidwirkung (Amaranthus ret. [7]): gute bis sehr gute Herbizidwirkung (Boniturnoten von 1 bis 4 (insbesondere von 1 bis 3) weisen auf eine gute bis sehr gute Herbizidwirkung hin)
Herbizidwirkung (Stellaria [8]): gute bis sehr gute Herbizidwirkung (Boniturnoten von 1 bis 4 (insbesondere von 1 bis 3) weisen auf eine gute bis sehr gute Herbizidwirkung hin)
Herbizidwirkung (Sorghum halep. [9]): gute bis sehr gute Herbizidwirkung (Boniturnoten von 1 bis 4 (insbesondere von 1 bis 3) weisen auf eine gute bis sehr gute Herbizidwirkung hin)
Herbizidwirkung (Bromus tectorum [10]): gute bis sehr gute Herbizidwirkung (Boniturnoten von 1 bis 4 (insbesondere von 1 bis 3) weisen auf eine gute bis sehr gute Herbizidwirkung hin)
Herbizidwirkung (Alopecurus myos. [11]): gute bis sehr gute Herbizidwirkung (Boniturnoten von 1 bis 4 (insbesondere von 1 bis 3) weisen auf eine gute bis sehr gute Herbizidwirkung hin)
Herbizidwirkung (Solanum nigrum [12]): gute bis sehr gute Herbizidwirkung (Boniturnoten von 1 bis 4 (insbesondere von 1 bis 3) weisen auf eine gute bis sehr gute Herbizidwirkung hin)
Herbizidwirkung (Lolium perenne [13]): gute bis sehr gute Herbizidwirkung (Boniturnoten von 1 bis 4 (insbesondere von 1 bis 3) weisen auf eine gute bis sehr gute Herbizidwirkung hin)
Herbizidwirkung (Sinapis [14]): gute bis sehr gute Herbizidwirkung (Boniturnoten von 1 bis 4 (insbesondere von 1 bis 3) weisen auf eine gute bis sehr gute Herbizidwirkung hin)
Herbizidwirkung (Veronica Sp. [15]): gute bis sehr gute Herbizidwirkung (Boniturnoten von 1 bis 4 (insbesondere von 1 bis 3) weisen auf eine gute bis sehr gute Herbizidwirkung hin)
Herbizidwirkung (Chrysanthe. leuc. [16]): gute bis sehr gute Herbizidwirkung (Boniturnoten von 1 bis 4 (insbesondere von 1 bis 3) weisen auf eine gute bis sehr gute Herbizidwirkung hin)
Herbizidwirkung (Xanthium Sp.): gute bis sehr gute Herbizidwirkung (Boniturnoten von 1 bis 4 (insbesondere von 1 bis 3) weisen auf eine gute bis sehr gute Herbizidwirkung hin)
Herbizidwirkung (Abutilon [17]): gute bis sehr gute Herbizidwirkung (Boniturnoten von 1 bis 4 (insbesondere von 1 bis 3) weisen auf eine gute bis sehr gute Herbizidwirkung hin)
Herbizidwirkung (Ipomoea): gute bis sehr gute Herbizidwirkung (Boniturnoten von 1 bis 4 (insbesondere von 1 bis 3) weisen auf eine gute bis sehr gute Herbizidwirkung hin)
Herbizidwirkung (Digitaria sang. [18]): gute bis sehr gute Herbizidwirkung (Boniturnoten von 1 bis 4 (insbesondere von 1 bis 3) weisen auf eine gute bis sehr gute Herbizidwirkung hin)
Herbizidwirkung (Avena fatua [19]): gute bis sehr gute Herbizidwirkung (Boniturnoten von 1 bis 4 (insbesondere von 1 bis 3) weisen auf eine gute bis sehr gute Herbizidwirkung hin)
Herbizidwirkung (Echinochloa crus galli [20]): gute bis sehr gute Herbizidwirkung (Boniturnoten von 1 bis 4 (insbesondere von 1 bis 3) weisen auf eine gute bis sehr gute Herbizidwirkung hin)
Herbizidwirkung (Chenopodium Sp. [21]): gute bis sehr gute Herbizidwirkung (Boniturnoten von 1 bis 4 (insbesondere von 1 bis 3) weisen auf eine gute bis sehr gute Herbizidwirkung hin)
Herbizidwirkung (Galium aparine [22]): gute bis sehr gute Herbizidwirkung (Boniturnoten von 1 bis 4 (insbesondere von 1 bis 3) weisen auf eine gute bis sehr gute Herbizidwirkung hin)
Herbizidwirkung (Amaranthus ret. [23]): gute bis sehr gute Herbizidwirkung (Boniturnoten von 1 bis 4 (insbesondere von 1 bis 3) weisen auf eine gute bis sehr gute Herbizidwirkung hin)
Herbizidwirkung (Stellaria [24]): gute bis sehr gute Herbizidwirkung (Boniturnoten von 1 bis 4 (insbesondere von 1 bis 3) weisen auf eine gute bis sehr gute Herbizidwirkung hin)
Herbizidwirkung (Sorghum halep. [25]): gute bis sehr gute Herbizidwirkung (Boniturnoten von 1 bis 4 (insbesondere von 1 bis 3) weisen auf eine gute bis sehr gute Herbizidwirkung hin)
Herbizidwirkung (Bromus tectorum [26]): gute bis sehr gute Herbizidwirkung (Boniturnoten von 1 bis 4 (insbesondere von 1 bis 3) weisen auf eine gute bis sehr gute Herbizidwirkung hin)
Herbizidwirkung (Alopecurus myos. [27]): gute bis sehr gute Herbizidwirkung (Boniturnoten von 1 bis 4 (insbesondere von 1 bis 3) weisen auf eine gute bis sehr gute Herbizidwirkung hin)
Herbizidwirkung (Solanum nigrum [28]): gute bis sehr gute Herbizidwirkung (Boniturnoten von 1 bis 4 (insbesondere von 1 bis 3) weisen auf eine gute bis sehr gute Herbizidwirkung hin)
Herbizidwirkung (Lolium perenne [29]): gute bis sehr gute Herbizidwirkung (Boniturnoten von 1 bis 4 (insbesondere von 1 bis 3) weisen auf eine gute bis sehr gute Herbizidwirkung hin)
Herbizidwirkung (Sinapis [30]): gute bis sehr gute Herbizidwirkung (Boniturnoten von 1 bis 4 (insbesondere von 1 bis 3) weisen auf eine gute bis sehr gute Herbizidwirkung hin)
Herbizidwirkung (Veronica Sp. [31]): gute bis sehr gute Herbizidwirkung (Boniturnoten von 1 bis 4 (insbesondere von 1 bis 3) weisen auf eine gute bis sehr gute Herbizidwirkung hin)
Herbizidwirkung (Chrysanthe. leuc. [32]): gute bis sehr gute Herbizidwirkung (Boniturnoten von 1 bis 4 (insbesondere von 1 bis 3) weisen auf eine gute bis sehr gute Herbizidwirkung hin)
